Our source for the MIC values is patent publication US6511673B1, “Microbicidal composition” (Rohm and Haas Company, priority 2000, dated 2003).

Each structure is given as a SMILES string. Like-named read-outs stand apart in the source and are kept apart here.

What all share (assay type): cell-based
Assay [1] relates to Aspergillus niger (ATCC #16404). Put plainly: MIC synergy assay in TSB, Test Medium Condition 1 (two-fold serial dilution). The note with it: ATCC16404, 168 h. Here is the method:
(§1) Synergism was determined by an industrially accepted method described by Kull, F. C.; Eisman, P. C.; Sylwestrowicz, H. D. and Mayer, R. L., in Applied Microbiology 9:538-541 (1961), using the ratio determined by the formula:
(§2) Qa/QA+Qb/QB=Synergy Index (“SI”)
(§3) When the sum of Qa/QA and Qb/QB is greater than one, antagonism is indicated. […] The lower the SI, the greater the synergy shown by that particular mixture. The minimum inhibitory concentration (MIC) of a microbicide is the lowest concentration tested under a specific set of conditions that prevents the growth of added microorganisms.
Synergism of combinations of microbicides was determined using standard MIC assays in trypticase soy broth medium (“TSB” medium). In this method, a range of concentrations was tested by preparing two-fold serial dilutions of the compound tested in 96-well microtiter plates. All liquid media transfers were performed with calibrated single or multichannel digital pipettors. Stock solutions of the microbicides were prepared in appropriate solvents and added to the TSB medium. All subsequent dilutions in plates were made using an automated liquid handling system. Final concentrations of microbicides were obtained by making two-fold serial dilutions in two directions in the microtiter plate. […]

Another assay relates to Aspergillus niger. Description: High resolution MIC synergy assay in TSB, Test Medium Condition 2 (ten-fold serial dilution). Here is the method:
as §1, §2, §3
(§4) Synergism of combinations of microbicides was determined using standard MIC assays in trypticase soy broth medium (“TSB” medium). In this method, a range of concentrations was tested by preparing two-fold serial dilutions of the compound tested in 96-well microtiter plates. All liquid media transfers were performed with calibrated single or multichannel digital pipettors. Stock solutions of the microbicides were prepared in appropriate solvents and added to the TSB medium. All subsequent dilutions in plates were made using an automated liquid handling system. Final concentrations of microbicides were obtained by making two-fold serial dilutions in two directions in the microtiter plate. […] A cell suspension of either Aspergillus niger (A. niger, ATCC #16404) or Candida albicans (C. albicans, ATCC #10231), adjusted to provide 1×10^5 cells per mL in each well, was added to the microtiter plates.
(§5) In a manner similar to that described above for Test Medium Condition 1, the synergism of combinations of microbicides determined in TSB by conducting high resolution MIC assays in the presence of various concentrations of MI. High resolution MICs were determined by adding varying amounts of microbicide to one column of a microtitre plate and doing subsequent […] dilutions using an automated liquid handling system to obtain a series of endpoints ranging from 2 ppm to 10,000 ppm active ingredient.

For another assay, the system named is Candida albicans. The assay is described as above. Here is the method:
as §1, §2, §3, §4, §5

Where [2] appears, read: 72 h, read-out: QA, MIC of Compound A acting alone.

As usually defined, the MIC is the smallest concentration in the dilution series that meets the test's criterion for growth inhibition. Take `Cn1sccc1=O` [MI, 2-methyl-3-isothiazolone]: the MIC in assay [1] (read-out: QA, MIC of Compound A acting alone) came out at 250 mg/L; in the assay with Aspergillus niger (setting [2]), 150 mg/L; with Candida albicans (setting [2]), 100 mg/L.

Regarding `CCCOC(=O)c1ccc(O)cc1` [PP, propyl para-hydroxybenzoate], the MIC in assay [1] (A. niger, TSB, two-fold serial dilution, 25° C. one week, read-out: QB, MIC of Compound B acting alone) was found to be 594 mg/L; in the assay on Aspergillus niger (A. niger, TSB, high resolution MIC, 25° C. 72 hours, read-out: QB, MIC of Compound B acting alone) it was 200 mg/L; in the assay on Candida albicans (C. albicans, TSB, high resolution MIC, 25° C. 72 hours, read-out: QB, MIC of Compound B acting alone), 300 mg/L.
